Results taken from patent US20240228504A1, “SUBSTITUTED TRICYCLIC AMIDES, ANALOGUES THEREOF, AND METHODS USING SAME” (Arbutus Biopharma Corporation, priority 2020, published 2024).
Read-outs that look alike come from different tables or passages of the source.

Tested on: HBV rcDNA in HepDE19 cells
Assay: HepDE19 assay with bDNA quantitation of HBV rcDNA
Assay type: cell-based, hepatitis B virus
Conditions: inhibition of rcDNA formation, bDNA quantitation, read-out: DE-19bDNA EC50
[1] = Hepatitis B virus, HepDE19, HepDE19 assay

CN(C(=O)c1ccc2scnc2c1)C1COCc2[nH]c(=O)c3cc(F)ccc3c21 (single isomer, unassigned) [Compound 444, N-(8-fluoro-6-oxo-1,4,5,6-tetrahydro-2H-pyrano[3,4-c]isoquinolin-1-yl)-N-methylbenzo[d]thiazole-5-carboxamide]
EC50 (HepDE19 assay): 12200 nM

CN(C(=O)c1ccc2scnc2c1)C1COCc2[nH]c(=O)c3cc(F)ccc3c21 (single isomer, unassigned) [Compound 445, N-(8-fluoro-6-oxo-1,4,5,6-tetrahydro-2H-pyrano[3,4-c]isoquinolin-1-yl)-N-methylbenzo[d]thiazole-5-carboxamide]
EC50 (HepDE19 assay): 700 nM

CN(C(=O)c1ccc2ncsc2c1)C1COCc2[nH]c(=O)c3cc(F)ccc3c21 (single isomer, unassigned) [Compound 446, N-(8-fluoro-6-oxo-1,4,5,6-tetrahydro-2H-pyrano[3,4-c]isoquinolin-1-yl)-N-methylbenzo[d]thiazole-6-carboxamide]
EC50 (HepDE19 assay): 16000 nM

CN(C(=O)c1ccc2ncsc2c1)C1COCc2[nH]c(=O)c3cc(F)ccc3c21 (single isomer, unassigned) [Compound 447, N-(8-fluoro-6-oxo-1,4,5,6-tetrahydro-2H-pyrano[3,4-c]isoquinolin-1-yl)-N-methylbenzo[d]thiazole-6-carboxamide]
EC50 (HepDE19 assay): 940 nM

CN(C(=O)c1ccc2[nH]ncc2c1)C1COCc2[nH]c(=O)c3cc(F)ccc3c21 (single isomer, unassigned) [Compound 449, N-(8-fluoro-6-oxo-1,4,5,6-tetrahydro-2H-pyrano[3,4-c]isoquinolin-1-yl)-N-methyl-1H-indazole-5-carboxamide]
EC50 [1]: 5600 nM

CN(C(=O)c1cc2sc(Cl)cc2[nH]1)C1CNCc2[nH]c(=O)c3cc(F)c(F)cc3c21 (single isomer, unassigned) [Compound 453, 2-chloro-N-(8,9-difluoro-6-oxo-1,2,3,4,5,6-hexahydrobenzo[c][1,7]naphthyridin-1-yl)-N-methyl-4H-thieno[3,2-b]pyrrole-5-carboxamide]
EC50 (HepDE19 assay): 2200 nM

CN(C(=O)c1cc2sc(Cl)cc2[nH]1)C1CNCc2[nH]c(=O)c3cc(F)c(F)cc3c21 (single isomer, unassigned) [Compound 454, 2-chloro-N-(8,9-difluoro-6-oxo-1,2,3,4,5,6-hexahydrobenzo[c][1,7]naphthyridin-1-yl)-N-methyl-4H-thieno[3,2-b]pyrrole-5-carboxamide]
EC50 (HepDE19 assay): 20 nM

Cc1cccc2[nH]c(C(=O)N(C)C3CNCc4[nH]c(=O)c5cc(F)c(F)cc5c43)cc12 (single isomer, unassigned) [Compound 456, N-(8,9-difluoro-6-oxo-1,2,3,4,5,6-hexahydrobenzo[c][1,7]naphthyridin-1-yl)-N,4-dimethyl-1H-indole-2-carboxamide]
EC50 (HepDE19 assay): 2200 nM

Cc1cccc2[nH]c(C(=O)N(C)C3CNCc4[nH]c(=O)c5cc(F)c(F)cc5c43)cc12 (single isomer, unassigned) [Compound 457, N-(8,9-difluoro-6-oxo-1,2,3,4,5,6-hexahydrobenzo[c][1,7]naphthyridin-1-yl)-N,4-dimethyl-1H-indole-2-carboxamide]
EC50 (HepDE19 assay): 10 nM

Cc1cc(F)cc2[nH]c(C(=O)N(C)C3CNCc4[nH]c(=O)c5cc(F)c(F)cc5c43)cc12 (single isomer, unassigned) [Compound 458, N-(8,9-difluoro-6-oxo-1,2,3,4,5,6-hexahydrobenzo[c][1,7]naphthyridin-1-yl)-6-fluoro-N,4-dimethyl-1H-indole-2-carboxamide]
EC50 (HepDE19 assay): 6600 nM

Cc1cc(F)cc2[nH]c(C(=O)N(C)C3CNCc4[nH]c(=O)c5cc(F)c(F)cc5c43)cc12 (single isomer, unassigned) [Compound 459, N-(8,9-difluoro-6-oxo-1,2,3,4,5,6-hexahydrobenzo[c][1,7]naphthyridin-1-yl)-6-fluoro-N,4-dimethyl-1H-indole-2-carboxamide]
EC50 (HepDE19 assay): 10 nM

CN(C(=O)c1cc2c(Cl)cc(F)cc2[nH]1)C1CNCc2[nH]c(=O)c3cc(F)c(F)cc3c21 (single isomer, unassigned) [Compound 460, 4-chloro-N-(8,9-difluoro-6-oxo-1,2,3,4,5,6-hexahydrobenzo[c][1,7]naphthyridin-1-yl)-6-fluoro-N-methyl-1H-indole-2-carboxamide]
EC50 (HepDE19 assay): 11200 nM

CN(C(=O)c1cc2c(Cl)cc(F)cc2[nH]1)C1CNCc2[nH]c(=O)c3cc(F)c(F)cc3c21 (single isomer, unassigned) [Compound 461, 4-chloro-N-(8,9-difluoro-6-oxo-1,2,3,4,5,6-hexahydrobenzo[c][1,7]naphthyridin-1-yl)-6-fluoro-N-methyl-1H-indole-2-carboxamide]
EC50 (HepDE19 assay): 30 nM

CN(C(=O)c1ccc2scnc2c1)C1CNCc2[nH]c(=O)c3cc(F)c(F)cc3c21 (single isomer, unassigned) [Compound 463, N-(8,9-difluoro-6-oxo-1,2,3,4,5,6-hexahydrobenzo[c][1,7]naphthyridin-1-yl)-N-methylbenzo[d]thiazole-5-carboxamide]
EC50 [1]: 2000 nM

CN(C(=O)c1ccc2ncsc2c1)C1CNCc2[nH]c(=O)c3cc(F)c(F)cc3c21 (single isomer, unassigned) [Compound 465, N-(8,9-difluoro-6-oxo-1,2,3,4,5,6-hexahydrobenzo[c][1,7]naphthyridin-1-yl)-N-methylbenzo[d]thiazole-6-carboxamide]
EC50 (HepDE19 assay): 3200 nM

CN(C(=O)c1cc2ccccc2[nH]1)C1CCCc2[nH]c(=O)c3cc(F)c(F)cc3c21 (single isomer, unassigned) [Compound 466, N-(8,9-Difluoro-6-oxo-1,2,3,4,5,6-hexahydrophenanthridin-1-yl)-N-methyl-1H-indole-2-carboxamide]
EC50 (HepDE19 assay): 2100 nM

CN(C(=O)c1cc2ccccc2[nH]1)C1CCCc2[nH]c(=O)c3cc(F)c(F)cc3c21 (single isomer, unassigned) [Compound 467, N-(8,9-Difluoro-6-oxo-1,2,3,4,5,6-hexahydrophenanthridin-1-yl)-N-methyl-1H-indole-2-carboxamide]
EC50 (HepDE19 assay): 10 nM

CN(C(=O)c1ccc2cn[nH]c2c1)C1COCc2[nH]c(=O)c3cc(F)ccc3c21 (single isomer, unassigned) [Compound 469, N-(8-fluoro-6-oxo-1,4,5,6-tetrahydro-2H-pyrano[3,4-c]isoquinolin-1-yl)-N-methyl-1H-indazole-6-carboxamide]
EC50 [1]: 2200 nM

CN(C(=O)c1ccc2cn[nH]c2c1)C1COCc2[nH]c(=O)c3cc(F)ccc3c21 (single isomer, unassigned) [Compound 470, N-(8-fluoro-6-oxo-1,4,5,6-tetrahydro-2H-pyrano[3,4-c]isoquinolin-1-yl)-N-methyl-1H-indazole-6-carboxamide]
EC50 (HepDE19 assay): 1100 nM

CN(C(=O)c1ccc2c(c1)CCC2)C1CNCc2[nH]c(=O)c3cc(F)c(F)cc3c21 (single isomer, unassigned) [Compound 471, N-(8,9-difluoro-6-oxo-1,2,3,4,5,6-hexahydrobenzo[c][1,7]naphthyridin-1-yl)-N-methyl-2,3-dihydro-1H-indene-5-carboxamide]
EC50 (HepDE19 assay): 8700 nM

CN(C(=O)c1ccc2c(c1)CCC2)C1CNCc2[nH]c(=O)c3cc(F)c(F)cc3c21 (single isomer, unassigned) [Compound 472, N-(8,9-difluoro-6-oxo-1,2,3,4,5,6-hexahydrobenzo[c][1,7]naphthyridin-1-yl)-N-methyl-2,3-dihydro-1H-indene-5-carboxamide]
EC50 (HepDE19 assay): 40 nM

CN(C(=O)c1ccc2[nH]ncc2c1)C1CNCc2[nH]c(=O)c3cc(F)c(F)cc3c21 (single isomer, unassigned) [Compound 474, N-(8,9-difluoro-6-oxo-1,2,3,4,5,6-hexahydrobenzo[c][1,7]naphthyridin-1-yl)-N-methyl-1H-indazole-5-carboxamide]
EC50 [1]: 3800 nM

CN(C(=O)c1cc2ccccc2[nH]1)C1CCCc2[nH]c(=O)c3cc(F)ccc3c21 (single isomer, unassigned) [Compound 475, N-(8-Fluoro-6-oxo-1,2,3,4,5,6-hexahydrophenanthridin-1-yl)-N-methyl-1H-indole-2-carboxamide]
EC50 (HepDE19 assay): 1800 nM

CN(C(=O)c1cc2ccccc2[nH]1)C1CCCc2[nH]c(=O)c3cc(F)ccc3c21 (single isomer, unassigned) [Compound 476, N-(8-Fluoro-6-oxo-1,2,3,4,5,6-hexahydrophenanthridin-1-yl)-N-methyl-1H-indole-2-carboxamide]
EC50 (HepDE19 assay): 20 nM

CN(C(=O)c1ccc2cn[nH]c2c1)C1CNCc2[nH]c(=O)c3cc(F)c(F)cc3c21 (single isomer, unassigned) [Compound 495, N-(8,9-difluoro-6-oxo-1,2,3,4,5,6-hexahydrobenzo[c][1,7]naphthyridin-1-yl)-N-methyl-1H-indazole-6-carboxamide]
EC50 (HepDE19 assay): > 25000 nM

CN(C(=O)c1ccc2cn[nH]c2c1)C1CNCc2[nH]c(=O)c3cc(F)c(F)cc3c21 (single isomer, unassigned) [Compound 496, N-(8,9-difluoro-6-oxo-1,2,3,4,5,6-hexahydrobenzo[c][1,7]naphthyridin-1-yl)-N-methyl-1H-indazole-6-carboxamide]
EC50 (HepDE19 assay): 4200 nM

CN(C(=O)c1cc2sc(F)cc2[nH]1)C1COCc2[nH]c(=O)c3cc(F)ccc3c21 (single isomer, unassigned) [Compound 497, 2-fluoro-N-(8-fluoro-6-oxo-1,4,5,6-tetrahydro-2H-pyrano[3,4-c]isoquinolin-1-yl)-N-methyl-4H-thieno[3,2-b]pyrrole-5-carboxamide]
EC50 (HepDE19 assay): 1200 nM

CN(C(=O)c1cc2sc(F)cc2[nH]1)C1COCc2[nH]c(=O)c3cc(F)ccc3c21 (single isomer, unassigned) [Compound 498, 2-fluoro-N-(8-fluoro-6-oxo-1,4,5,6-tetrahydro-2H-pyrano[3,4-c]isoquinolin-1-yl)-N-methyl-4H-thieno[3,2-b]pyrrole-5-carboxamide]
EC50 (HepDE19 assay): 80 nM

CN(C(=O)c1cc2sc(F)cc2[nH]1)C1CNCc2[nH]c(=O)c3cc(F)c(F)cc3c21 (single isomer, unassigned) [Compound 499, N-(8,9-difluoro-6-oxo-1,2,3,4,5,6-hexahydrobenzo[c][1,7]naphthyridin-1-y1)-2-fluoro-N-methyl-4H-thieno[3,2-b]pyrrole-5-carboxamide]
EC50 (HepDE19 assay): 20000 nM
